In patent publication US20090220473A1, “ADIR RELATED POLYMORPHISMS AND APPLICATIONS THEREOF” (Leiden University Medical Center, priority 2006, published 2009):
“Also recorded” adds a separate entry of the source. Each block holds one molecule with its values, some of them ahead of it.

Columns and labels:
T2 cells = assay: 51Cr release assay on peptide loaded T2 cells with CTL; format: cell-based; settings: for recognition (lysis) by RDR2 of peptide loaded T2 cells: 51Cr release assay, FIG. 2b
Protocol: Cytotoxicity of CTL clones in standard ^51Cr release assays was performed as described previously (Faber et al. 1992, J Exp Med 176: 1283-1289). Target cells were labelled with 100 μCi Na2^51CrO4 (Amersham Biosciences, Freiburg, Germany) for 1 hour at 37° C., washed, and diluted to […] to 5*10^4 cells per ml to obtain 10^3 to 5*10^3 target cells per well. CTL's were added in various effector:target (E:T) ratios and incubated for 4 hours. Supernatants were harvested and transferred to solid scintillator containing microplates (Perkin Elmer, Boston Mass., USA) and counted on a Topcount counter (Perkin Elmer). HPLC purified natural peptides or diluted synthetic peptides were tested for reactivity by loading ^51Cr labelled T2 or donor EBV LCL cells for 1-2 hours at 37° C. and 5% CO2 prior to addition of CTL.

[1] = target: T1, recombinant HLA A*0201 molecules (Homo sapiens, UniProt P04439, D140Y/D185E/D98H/E176V/E277Q/G131W/G231S/I119V/I121R/I166T/I218V/L300P/L318F/N151K/N90K/P208A/P217A/Q86G/Q94H/R138H/R169H/T345S); assay: Binding of peptides to recombinant HLA A*0201 molecules (monomer folding)
T1 construct: biotin (biotinylated); made in house
From the text: Recombinant biotinilated HLA A*0201 monomers were folded in the presence of β2-microbglobulin with peptide […] or […]. Streptavidin-PE and streptavidin-APC tetramers were produced with refolded complexes as described previously (Altman et al. 1996 Science 274: 94-96). Tetrameric complexes were used to stain thawed patient samples taken at the indicated time points post SCT and DLI. Cells were counterstained by CD8 APC (Caltag, Burlingame, Calif., USA) and analysed by flowcytometry. Tetramer positive events were single well FACS sorted, expanded and tested for cytotoxicity.

GVHD = assay: Treatment of acute GVHD in the patient after DLI; format: in vivo, human; settings: 1 mg prednisolone/kg body weight and cyclosporin A together
[2] = target: recombinant HLA A*0201 molecules (human, biotinylated (site not stated)); assay: refolding of recombinant HLA A*0201 with beta2-microglobulin and peptide

binding to recombinant HLA A*0201 molecules [1]: able to bind
Molecule: SVAPALALFPA [LB-ADIR-1F]
recognition (lysis) by RDR2 of peptide loaded T2 cells (T2 cells): lysed; also recorded: recognized

binding to recombinant HLA A*0201 molecules [1]: able to bind
Molecule: SVAPALALSPA [SVAPALAL-S-PA, donor-type allelic counterpart peptide with serine at position 9, reference compound]
recognition (lysis) by RDR2 of peptide loaded T2 cells (T2 cells): not

Molecule: C[C@]12C=CC(=O)C=C1CC[C@@H]1[C@@H]2[C@@H](O)C[C@@]2(C)[C@H]1CC[C@]2(O)C(=O)CO [prednisolone]
treatment of GVHD (GVHD): treated successfully

Molecule: SVAPAXAXFPA
peptide level at which lysis by RDR2 was reconstituted (T2 cells; 51Cr labelled T2 cells loaded with synthetic peptide, levels as low as, data not shown): ≤ 10 pM

binding result [2]: binds
Molecule: SVAPALALFPA (Synthetic 11-mer) [LB-ADIR-1F peptide SVAPALALFPA]

binding result [2]: binds
B1: peptide SVAPALALSPA (peptide)
peptide: SVAPALALSPA
notes: Synthetic peptide of the donor-type (Ser) allele
